Laboratory results published in ChEMBL document CHEMBL1138773, “Design and synthesis of aryl diphenolic azoles as potent and selective estrogen receptor-beta ligands” (J Med Chem, 2004).

Legend:
[1] = target: T1, Estrogen receptor (Homo sapiens, UniProt P03372)
T1 sequence (P03372 whole entry): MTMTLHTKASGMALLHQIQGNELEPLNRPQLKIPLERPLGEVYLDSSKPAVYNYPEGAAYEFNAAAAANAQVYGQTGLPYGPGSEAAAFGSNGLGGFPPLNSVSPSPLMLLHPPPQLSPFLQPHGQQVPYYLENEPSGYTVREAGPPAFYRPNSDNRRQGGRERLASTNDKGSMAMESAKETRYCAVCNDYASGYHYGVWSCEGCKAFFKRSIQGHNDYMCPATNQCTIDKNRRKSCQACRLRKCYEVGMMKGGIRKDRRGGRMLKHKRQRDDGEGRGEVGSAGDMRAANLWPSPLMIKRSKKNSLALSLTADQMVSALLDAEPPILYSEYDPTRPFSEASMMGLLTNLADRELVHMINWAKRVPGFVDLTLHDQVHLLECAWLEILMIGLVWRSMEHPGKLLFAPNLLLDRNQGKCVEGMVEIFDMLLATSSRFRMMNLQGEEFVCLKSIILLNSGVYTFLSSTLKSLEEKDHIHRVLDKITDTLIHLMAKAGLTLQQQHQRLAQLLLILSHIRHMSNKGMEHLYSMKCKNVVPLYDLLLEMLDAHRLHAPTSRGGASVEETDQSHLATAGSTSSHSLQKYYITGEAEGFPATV

[2] = target: Estrogen receptor beta (Homo sapiens, UniProt Q92731)
[3] = species on record: Rattus norvegicus; assay: Effect of combination of compound and PPT on rat vasomotor instability in terms of tail skin temperature change 15 min after naloxone injection; type: functional
[4] = target: Estrogen receptor beta (Mus musculus, UniProt O08537)
[5] = target: Estrogen receptor beta (Rattus norvegicus, UniProt Q62986)
[6] = target: T2, Estrogen receptor (Rattus norvegicus, UniProt P06211)
T2 sequence (P06211 whole entry): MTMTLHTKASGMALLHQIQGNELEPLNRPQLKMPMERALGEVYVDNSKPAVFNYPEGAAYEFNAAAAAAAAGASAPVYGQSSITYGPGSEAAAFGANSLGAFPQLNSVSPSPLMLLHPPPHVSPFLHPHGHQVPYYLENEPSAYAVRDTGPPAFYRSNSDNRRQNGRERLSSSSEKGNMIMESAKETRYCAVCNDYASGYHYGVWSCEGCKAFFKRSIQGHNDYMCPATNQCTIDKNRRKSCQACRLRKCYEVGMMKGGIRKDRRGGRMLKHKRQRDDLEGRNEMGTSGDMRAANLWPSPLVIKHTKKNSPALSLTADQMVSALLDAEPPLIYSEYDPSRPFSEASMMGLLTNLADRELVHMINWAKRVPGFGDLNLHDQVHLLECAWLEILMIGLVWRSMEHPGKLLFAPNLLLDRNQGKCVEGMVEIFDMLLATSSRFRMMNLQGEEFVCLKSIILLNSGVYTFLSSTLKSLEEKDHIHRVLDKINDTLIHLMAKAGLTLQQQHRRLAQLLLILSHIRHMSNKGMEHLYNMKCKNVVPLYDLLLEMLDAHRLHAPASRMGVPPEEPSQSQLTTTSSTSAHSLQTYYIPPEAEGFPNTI

[7] = species on record: Mus musculus; conditions: dose 50 mg/kg
Description: Weight of mouse uterine when treated with compound at 50 mg/kg dose was determined

[8] = target: T3, Estrogen receptor (Mus musculus, UniProt P19785)
T3 sequence (P19785 whole entry): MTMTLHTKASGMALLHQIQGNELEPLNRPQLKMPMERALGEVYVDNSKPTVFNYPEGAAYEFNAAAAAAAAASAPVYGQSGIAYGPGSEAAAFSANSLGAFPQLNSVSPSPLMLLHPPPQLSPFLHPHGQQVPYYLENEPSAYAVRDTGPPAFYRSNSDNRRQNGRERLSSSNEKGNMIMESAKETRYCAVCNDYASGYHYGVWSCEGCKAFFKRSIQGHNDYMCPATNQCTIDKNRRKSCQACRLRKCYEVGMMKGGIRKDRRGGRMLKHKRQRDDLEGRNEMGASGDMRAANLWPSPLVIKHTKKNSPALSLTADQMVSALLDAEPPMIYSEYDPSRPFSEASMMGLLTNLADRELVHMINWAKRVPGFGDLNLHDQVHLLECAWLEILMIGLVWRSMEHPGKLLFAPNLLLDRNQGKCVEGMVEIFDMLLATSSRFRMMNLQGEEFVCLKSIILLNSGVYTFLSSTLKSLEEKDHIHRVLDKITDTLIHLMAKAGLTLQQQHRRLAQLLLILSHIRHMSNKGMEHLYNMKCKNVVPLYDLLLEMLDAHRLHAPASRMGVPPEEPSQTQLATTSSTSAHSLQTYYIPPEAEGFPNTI

[9] = target: Estrogen receptor beta (Rattus norvegicus) (UniProt Q62986); conditions: Prostate gland
[10] = target: Estrogen receptor beta (Rattus norvegicus) (UniProt Q62986); conditions: Prostate gland; remark: listed apart in the source
[11] = system: Rattus norvegicus; assay: Trabecular bone mineral density in ovariectomized rat when treated with compound at 10 mg/kg dose; type: functional, Trabecula
[12] = system: Rattus norvegicus; assay: Total bone mineral density in ovariectomized rat when treated with compound at 10 mg/kg dose; type: functional

Estrogen receptor beta (Homo sapiens, UniProt Q92731), sequence (Q92731 whole entry): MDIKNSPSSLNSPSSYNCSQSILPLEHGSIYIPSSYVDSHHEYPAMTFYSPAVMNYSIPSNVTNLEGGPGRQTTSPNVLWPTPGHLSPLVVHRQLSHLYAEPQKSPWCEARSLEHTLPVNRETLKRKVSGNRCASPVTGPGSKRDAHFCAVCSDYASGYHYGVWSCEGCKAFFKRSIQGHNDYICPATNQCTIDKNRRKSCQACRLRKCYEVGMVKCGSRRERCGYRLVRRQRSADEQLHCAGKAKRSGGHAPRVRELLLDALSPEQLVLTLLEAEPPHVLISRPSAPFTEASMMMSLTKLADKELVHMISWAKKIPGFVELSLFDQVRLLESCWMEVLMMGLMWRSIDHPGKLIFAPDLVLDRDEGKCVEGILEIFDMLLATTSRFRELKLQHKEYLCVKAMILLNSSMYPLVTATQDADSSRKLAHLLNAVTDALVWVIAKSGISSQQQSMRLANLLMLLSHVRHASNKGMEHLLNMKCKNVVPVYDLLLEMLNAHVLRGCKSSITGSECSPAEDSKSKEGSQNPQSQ
Estrogen receptor beta (Rattus norvegicus, UniProt Q62986), sequence (Q62986 whole entry): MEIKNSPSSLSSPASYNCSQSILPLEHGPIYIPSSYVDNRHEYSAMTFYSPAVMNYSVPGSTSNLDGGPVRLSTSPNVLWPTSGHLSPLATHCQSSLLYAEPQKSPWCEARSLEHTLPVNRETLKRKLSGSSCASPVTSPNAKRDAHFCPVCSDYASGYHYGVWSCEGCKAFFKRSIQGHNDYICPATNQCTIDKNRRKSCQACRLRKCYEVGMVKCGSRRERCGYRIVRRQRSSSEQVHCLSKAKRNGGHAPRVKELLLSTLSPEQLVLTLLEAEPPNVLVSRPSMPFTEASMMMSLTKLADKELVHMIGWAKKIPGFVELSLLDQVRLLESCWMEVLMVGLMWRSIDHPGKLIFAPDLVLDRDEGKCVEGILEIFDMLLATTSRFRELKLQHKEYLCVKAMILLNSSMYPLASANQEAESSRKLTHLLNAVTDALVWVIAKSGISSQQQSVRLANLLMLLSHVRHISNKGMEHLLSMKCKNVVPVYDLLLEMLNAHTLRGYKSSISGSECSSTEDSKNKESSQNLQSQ
Estrogen receptor beta (Rattus norvegicus), sequence (Q62986 whole entry): as above
Estrogen receptor beta (Mus musculus, UniProt O08537), sequence (O08537 whole entry): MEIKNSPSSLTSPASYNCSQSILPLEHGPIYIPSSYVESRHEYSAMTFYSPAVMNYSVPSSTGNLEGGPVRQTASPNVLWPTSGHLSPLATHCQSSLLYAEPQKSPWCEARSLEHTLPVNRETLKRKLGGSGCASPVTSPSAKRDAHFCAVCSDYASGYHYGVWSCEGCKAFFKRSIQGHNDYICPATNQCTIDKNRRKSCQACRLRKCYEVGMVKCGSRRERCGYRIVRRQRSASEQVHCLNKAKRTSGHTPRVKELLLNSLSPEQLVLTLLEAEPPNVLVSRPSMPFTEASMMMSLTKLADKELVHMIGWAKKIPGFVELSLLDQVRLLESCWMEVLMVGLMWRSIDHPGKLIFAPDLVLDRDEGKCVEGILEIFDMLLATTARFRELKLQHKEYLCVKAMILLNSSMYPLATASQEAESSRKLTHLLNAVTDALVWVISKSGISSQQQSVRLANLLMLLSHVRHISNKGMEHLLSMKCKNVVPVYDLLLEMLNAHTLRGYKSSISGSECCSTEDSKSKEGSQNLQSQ

SMILES | IC50 [1] [nM] | IC50 [2] [nM] | further results
Oc1ccc2c(-c3nc4cc(F)c(O)cc4o3)cccc2c1 | 434 | 46 | 
N#Cc1cc(O)cc2nc(-c3ccc(O)cc3)oc12 |  |  | Activity [3]: 2.7; IC50 [4]: 4.3 nM; IC50 [5]: 4 nM; IC50 [6]: 362 nM
C=Cc1cc(O)cc2nc(-c3cc(F)c(O)cc3F)oc12 | 4040 | 66 | 
CCCCOc1cc(-c2nc3ccc(O)cc3o2)ccc1O | 6240 | 3660 | 
C/C=C\c1cc(O)cc2nc(-c3ccc(O)cc3)oc12 | 775 | 1.42 | 
C=Cc1cc(O)cc2nc(-c3c(F)cc(O)cc3F)oc12 | 249 | 2.2 | Weight [7]: 10 mg
C=Cc1cc(O)cc2nc(-c3ccc(O)cc3C)oc12 | 1120 | 27 | 
C=CCc1cc(O)cc2nc(-c3ccc(O)cc3)oc12 | 727 | 13 | Weight [7]: 10 mg
Oc1ccc(-c2noc3cc(O)ccc23)cc1 |  |  | IC50 [4]: 13 nM; IC50 [8]: 1090 nM; IC50 [5]: 36 nM; IC50 [6]: 716 nM
Oc1ccc(-c2noc3ccc(O)cc23)c(O)c1 | 4070 | 138 | 
C=Cc1cc(O)cc2nc(-c3ccc(O)c(F)c3)oc12 [PRINABEREL] |  |  | IC50 [4]: 3.7 nM; IC50 [8]: 746 nM; IC50 [5]: 3.14 nM; Weight [9]: 132 mg; IC50 [6]: 618 nM
Oc1ccc(-c2nc3cc(O)cc(/C=C\Br)c3o2)c(F)c1 | 196 | 16 | 
COC(=O)c1cc(O)cc2nc(-c3ccc(O)cc3)oc12 | > 5000 | 356 | 
C/C=C\c1cc(O)cc2nc(-c3ccc(O)cc3F)oc12 | 539 | 23 | 
C=CCc1cc(O)cc2nc(-c3ccc(O)cc3F)oc12 | 98 | 3 | 
C=Cc1cc(O)cc2nc(-c3ccc(O)cc3)oc12 | 447 |  | 
C=Cc1cc(O)cc2nc(-c3ccc(O)cc3F)oc12 |  |  | Weight [7]: 10.3 mg
CC(C)C(=O)Nc1ccc([N+](=O)[O-])c(C(F)(F)F)c1 |  |  | Weight [10]: 15.2 mg
O=Cc1cc(O)cc2nc(-c3ccc(O)cc3)oc12 |  |  | IC50 [4]: 16.5 nM; IC50 [5]: 29 nM; IC50 [6]: 2250 nM

SMILES | IC50 [1] [nM] | IC50 [2] [nM] | further results
N#Cc1cc(O)cc2nc(-c3ccc(O)cc3F)oc12 | 138 | 2.4 | 
Oc1ccc2c(-c3ccccc3O)noc2c1 | 3000 |  | 
O/N=C/c1cc(O)ccc1-c1noc2cc(O)ccc12 | 2390 | 383 | 
Oc1cc(/C=C\F)c2oc(-c3ccc(O)c(F)c3)nc2c1 | 376 | 3.2 | Weight [7]: 9.8 mg
Oc1cc(Br)c2oc(-c3ccc(O)c(F)c3)nc2c1 |  |  | IC50 [4]: 2.7 nM; IC50 [8]: 199 nM; IC50 [5]: 2 nM; Density [11]: 312.34 mg/cm3; Weight [9]: 119 mg; Density [12]: 501.4 mg/cm3; IC50 [6]: 171 nM
N#CCc1cc(O)ccc1-c1noc2cc(O)ccc12 | 717 | 96 | 
COc1c(Br)c(O)c(Br)c2nc(-c3ccc(O)c(F)c3)oc12 | 559 | 64 | 
COc1cc(O)c(Br)c2nc(-c3ccc(O)c(F)c3)oc12 | 2670 | 52 | 
O=C(O)c1cc(O)cc2nc(-c3ccc(O)cc3)oc12 | > 5000 | > 5000 | 
Oc1ccc(-c2noc3ccccc23)c(O)c1 | 6100 | 718 | 
Oc1ccc2nc(-c3cccc(O)c3O)oc2c1 | 2350 |  | 
Cc1cc(O)c2cccc(-c3nc4ccc(O)cc4o3)c2c1 | 163 | 6 | 
Oc1ccc(-c2nc3cc(O)cc(/C=C\Br)c3o2)cc1 | 4650 | 45 | 
Oc1ccc2nc(-c3ccc(O)c(F)c3)oc2c1 | 8430 |  | 
Oc1ccc(-c2nc3cc(O)cc(Br)c3o2)cc1 |  |  | Activity [3]: 1.9; IC50 [4]: 1.7 nM; IC50 [8]: 132 nM; IC50 [5]: 1.2 nM; Density [11]: 287.56 mg/cm3; Density [12]: 525.51 mg/cm3; IC50 [6]: 132 nM
Oc1ccc(-c2nc3ccc(O)cc3o2)cc1 |  |  | IC50 [4]: 9.5 nM; IC50 [8]: 1340 nM; IC50 [5]: 20 nM; IC50 [6]: 821 nM
N#Cc1cc(O)ccc1-c1noc2cc(O)ccc12 | 264 | 12 | 
Oc1ccc(-c2nc3cc(O)ccc3o2)cc1 |  |  | IC50 [4]: 9.9 nM; IC50 [8]: 1630 nM; IC50 [5]: 2.2 nM
